Values quoted from earlier work in patent publication US11353469B2, “Nontoxic compounds for use as taggants in nutritional and pharmaceutical products” (Hall Labs, LLC, priority 2019, dated 2022).
Read-outs that look alike come from different tables or passages of the source.

Conditions: for amount recoverable in urine: single dose of 1 g/kg body weight

- time after administration at which DMSO has been detected in urine (applied topically): 2 h
- time after administration at which compound could be detected in urine (orally administered): 30 min
- time of peak excretion in urine (orally administered): ≤ 4 h
- amount recoverable in urine (administered orally): 30-68%
- amount recoverable in urine (applied topically): 13%
SMILES: C[S+](C)[O-] [DMSO, dimethylsulfoxide]
